Data as given in patent US8372967B2, “Compounds and methods for modulating expression of GCCR” (Isis Pharmaceuticals, Inc., priority 2006, dated 2013).
Strand notation (5' to 3'): a small letter for the sugar, then the base; units joined by * are phosphorothioate-linked, units joined directly phosphodiester-linked; [ ] holds rarer units or linkages, { } end groups; capitals alone tell only the bases. e = 2'-O-(2-methoxyethyl) (MOE); [5mC] = 5-methylcytosine; d = 2'-deoxy (DNA)

Legend:
rat DGAT2 mRNA = test: Dose-dependent inhibition of DGAT2 in A10 cells (Tables 82, 83); assay type: cell-based
Description: Additional short antisense compounds targeted to DGAT2 mRNA were tested in vitro in a dose-response experiment. A10 cells were prepared as described above and treated with 6.25, 12.5, 25.0, 50.0, 100.0, and 200.0 nM short antisense compounds to determine if DGAT2 inhibition occurs in a dose-dependent manner. […] Results are presented as percent inhibition, relative to untreated control cells.
Additional short antisense compounds targeted to DGAT2 mRNA were tested in vitro. A10 cells were prepared as described above and treated with 0.62, 1.85, 5.56, 16.67, 50.0, and 150.0 nM short antisense compounds to determine if DGAT2 inhibition occurs in a dose-dependent manner. DGAT2 mRNA was measured using quantitative real-time PCR, as described herein. […] Results are presented as percent inhibition of rat DGAT2, relative to untreated control cells.

DGAT2 mRNA = test: Antisense inhibition of DGAT2 in A10 cells, 75 nM (Table 81); assay type: cell-based, rat; conditions: approximately 24 hours
Description: Short antisense compounds targeted to a DGAT2 nucleic acid were tested for their effects on DGAT2 mRNA in vitro. Cultured A10 cells in a 96-well plate were treated with 75 nM of short antisense compound. After a treatment period of approximately 24 hours, RNA was isolated from the cells and DGAT2 mRNA levels were measured by quantitative real-time PCR, as described herein. DGAT2 mRNA levels were adjusted according to total RNA content as measured by RIBOGREEN®. Results are presented as percent inhibition of DGAT2, relative to untreated control cells in Table 81.

rat SGLT2 mRNA = test: Rat SGLT2 mRNA in kidney, 1-10-1 and 1-10-2 MOE gapmers, Sprague-Dawley rats (Table 63); assay type: in vivo
From the text: 1-10-1 and 1-10-2 MOE gapmer antisense compounds, provided in Table 62, were designed to target different regions of the mouse or rat SGLT2 RNA. All short antisense compounds in Table 62 are chimeric oligonucleotides (“gapmers”) either 12 or 13 nucleotides in length, composed of a central “gap” segment consisting of ten 2′-deoxynucleotides, which are flanked on the 5′ side by a one-nucleoside “wing” and on the 3′ side by a two or one-nucleotide “wing”. […] All cytidine residues are 5-methylcytidines.
The short antisense compounds were analyzed for their effect on rat SGLT2 mRNA levels. Data are ranges taken from three experiments in which Male Sprague-Dawley rats (170-200 g) were dosed twice per week for three weeks with 450, 150 or 50 nmol/kg of either a 1-10-1 or 1-10-2 MOE gapmer given by intraperitoneal injection. Rats were sacrificed 48 hours following last administration and evaluated for SGLT2 mRNA levels in kidney. Target levels were determined by RT, real-time PCR as described by other examples herein. PCR results were normalized to an internal ISIS control.

Row | Substance | percent inhibition of rat DGAT2 (rat DGAT2 mRNA; 0.62 nM (Table 83)) [%] | percent inhibition of rat DGAT2 (rat DGAT2 mRNA; 1.85 nM (Table 83)) [%] | percent inhibition of rat DGAT2 (rat DGAT2 mRNA; 5.56 nM (Table 83)) [%] | percent inhibition of rat DGAT2 (rat DGAT2 mRNA; 16.67 nM (Table 83)) [%] | percent inhibition of rat DGAT2 (rat DGAT2 mRNA; 50 nM (Table 83)) [%] | percent inhibition of rat DGAT2 (rat DGAT2 mRNA; 150 nM (Table 83)) [%] | % Control (DGAT2 mRNA) [% Control] | percent inhibition of DGAT2 (rat DGAT2 mRNA; 6.25 nM (Table 82)) [%] | percent inhibition of DGAT2 (rat DGAT2 mRNA; 12.5 nM (Table 82)) [%] | percent inhibition of DGAT2 (rat DGAT2 mRNA; 50.0 nM (Table 82)) [%] | percent inhibition of DGAT2 (rat DGAT2 mRNA; 100.0 nM (Table 82)) [%] | percent inhibition of DGAT2 (rat DGAT2 mRNA; 200.0 nM (Table 82)) [%] | % change in SGLT2 expression relative to saline (rat SGLT2 mRNA; 50 nmol/kg i.p. twice per week for three weeks) [%] | % change in SGLT2 expression relative to saline (rat SGLT2 mRNA; 150 nmol/kg i.p. twice per week for three weeks) [%] | % change in SGLT2 expression relative to saline (rat SGLT2 mRNA; 450 nmol/kg i.p. twice per week for three weeks) [%]
1 | 372503 (antisense eG*e[5mC]*eA*dG*dG*dT*dT*dG*dT*dG*dT*dG*dT*e[5mC]*eT*eT) [compound 372503] | 7 | 10 | 4 | 25 | 54 | 80 | 35 |  |  |  |  |  |  |  | 
2 | 372491 (antisense eA*e[5mC]*eA*dT*dG*dA*dG*dG*dA*dT*dG*dA*d[5mC]*eA*e[5mC]*eT) [compound 372491] |  |  |  |  |  |  | 80 |  |  |  |  |  |  |  | 
3 | 372508 (antisense eA*eG*eT*dT*d[5mC]*d[5mC]*dT*dG*dG*dT*dG*dG*dT*e[5mC]*eA*eG) [compound 372508] | 0 | 0 | 6 | 14 | 39 | 71 | 35 |  |  |  |  |  |  |  | 
4 | 372563 (antisense eA*eG*d[5mC]*d[5mC]*dA*dG*dG*dT*dG*dA*d[5mC]*dA*eG*eA) [compound 372563] | 0 | 0 | 0 | 1 | 4 | 46 | 48 |  |  |  |  |  |  |  | 
5 | 372618 (antisense eG*eT*dG*dG*dT*dA*d[5mC]*dA*dG*dG*dT*d[5mC]*eG*eA) [compound 372618] | 0 | 0 | 0 | 0 | 30 | 60 | 29 | 0 | 5 | 27 | 65 | 80 |  |  | 
6 | 372516 (antisense eT*eA*e[5mC]*dA*dG*dA*dA*dG*dG*d[5mC]*dA*d[5mC]*d[5mC]*e[5mC]*eA*eG) [compound 372516] | 1 | 10 | 0 | 4 | 35 | 81 | 27 |  |  |  |  |  |  |  | 
7 | 372624 (antisense eT*eG*dG*dT*d[5mC]*dT*dT*dG*dT*dG*dA*dT*eT*eG) [compound 372624] | 0 | 0 | 0 | 1 | 16 | 38 | 56 |  |  |  |  |  |  |  | 
8 | 372524 (antisense eG*e[5mC]*e[5mC]*dA*dG*dG*d[5mC]*dA*dT*dG*dG*dA*dG*e[5mC]*eT*e[5mC]) [compound 372524] | 7 | 0 | 5 | 30 | 68 | 91 | 21 |  |  |  |  |  |  |  | 
9 | ISIS 382675 (eT*dA*dG*d[5mC]*d[5mC]*dA*d[5mC]*d[5mC]*dA*dA*d[5mC]*eT*eG) |  |  |  |  |  |  |  |  |  |  |  |  | −50 | −65 | −80
10 | 372586 (antisense eG*eT*dT*d[5mC]*d[5mC]*dT*dG*dG*dT*dG*dG*dT*e[5mC]*eA) [compound 372586] | 0 | 0 | 0 | 0 | 7 | 55 | 40 | 19 | 0 | 22 | 45 | 77 |  |  | 
11 | 372501 (antisense eT*eT*eG*dT*dG*dT*dG*dT*d[5mC]*dT*dT*d[5mC]*dA*e[5mC]*e[5mC]*eA) [compound 372501] | 1 | 5 | 10 | 11 | 25 | 68 | 28 |  |  |  |  |  |  |  | 
12 | 372594 (antisense eA*e[5mC]*dA*dG*dA*dA*dG*dG*d[5mC]*dA*d[5mC]*d[5mC]*e[5mC]*eA) [compound 372594] | 0 | 0 | 0 | 0 | 2 | 15 | 77 |  |  |  |  |  |  |  | 
13 | 372578 (antisense eT*eG*dT*dG*dT*d[5mC]*dT*dT*d[5mC]*dA*d[5mC]*d[5mC]*eA*eG) [compound 372578] | 0 | 0 | 0 | 2 | 7 | 42 | 59 |  |  |  |  |  |  |  | 
14 | 372546 (antisense eT*eT*eG*dG*dT*d[5mC]*dT*dT*dG*dT*dG*dA*dT*eT*eG*eT) [compound 372546] | 0 | 2 | 11 | 4 | 48 | 78 | 34 |  |  |  |  |  |  |  | 
15 | 372530 (antisense eT*e[5mC]*eG*dG*d[5mC]*d[5mC]*d[5mC]*d[5mC]*dA*dG*dG*dA*dG*e[5mC]*e[5mC]*e[5mC]) [compound 372530] | 0 | 2 | 0 | 10 | 38 | 78 | 35 |  |  |  |  |  |  |  | 
16 | 372500 (antisense eG*eT*eG*dT*dG*dT*d[5mC]*dT*dT*d[5mC]*dA*d[5mC]*d[5mC]*eA*eG*e[5mC]) [compound 372500] | 0 | 0 | 0 | 18 | 64 | 88 | 16 |  |  |  |  |  |  |  | 
17 | 372602 (antisense e[5mC]*e[5mC]*dA*dG*dG*d[5mC]*dA*dT*dG*dG*dA*dG*e[5mC]*eT) [compound 372602] | 0 | 0 | 10 | 0 | 19 | 51 | 39 | 0 | 0 | 18 | 47 | 76 |  |  | 
18 | 372580 (antisense eG*eG*dT*dT*dG*dT*dG*dT*dG*dT*d[5mC]*dT*eT*e[5mC]) [compound 372580] | 0 | 5 | 5 | 3 | 16 | 42 | 48 |  |  |  |  |  |  |  | 
19 | 372569 (antisense e[5mC]*eA*dT*dG*dA*dG*dG*dA*dT*dG*dA*d[5mC]*eA*e[5mC]) [compound 372569] |  |  |  |  |  |  | 104 |  |  |  |  |  |  |  | 
